# Source: patent publication US20090099094A1, “Use of Somatostatin Agonists to Treat Medullary Thyroid Carcinoma” (priority 2007, published 2009)
# Square brackets hold non-standard residues; d marks the D form. Peptide text beside a SMILES is read from it. Tic = O=C(O)[C@@H]1Cc2ccccc2CN1; Abu = CC[C@H](N)C(=O)O
# Key:
# [1] = molecular target: SSTR2 (Homo sapiens, UniProt P30874); assay: SSTR receptor binding affinity (Ki), SSTR2; conditions: read-out: SSTR Specificity Ki SSTR2
# [2] = molecular target: SSTR3 (Homo sapiens, UniProt P32745); assay: SSTR receptor binding affinity (Ki), SSTR3; conditions: read-out: SSTR Specificity Ki SSTR3
# Chain of SSTR3 (P32745 whole entry): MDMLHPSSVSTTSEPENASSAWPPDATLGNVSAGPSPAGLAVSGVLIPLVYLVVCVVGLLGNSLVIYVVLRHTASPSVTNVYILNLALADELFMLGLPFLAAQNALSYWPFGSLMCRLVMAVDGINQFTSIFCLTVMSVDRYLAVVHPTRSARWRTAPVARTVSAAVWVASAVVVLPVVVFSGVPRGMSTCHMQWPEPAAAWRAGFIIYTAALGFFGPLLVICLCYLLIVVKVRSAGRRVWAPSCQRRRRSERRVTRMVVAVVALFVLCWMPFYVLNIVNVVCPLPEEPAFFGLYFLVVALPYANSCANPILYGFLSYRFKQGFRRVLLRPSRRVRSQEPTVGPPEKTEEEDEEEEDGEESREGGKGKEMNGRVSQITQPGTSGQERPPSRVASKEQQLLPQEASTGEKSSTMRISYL
# [3] = test system: medullary thyroid carcinoma primary cultures; assay: Cell viability of MTC primary cultures (MTT); format: cell-based, human; conditions: 10^−8 M, forty-eight hours; for cell viability, change vs. control (signed, negative = reduced): group B (lanreotide non-responsive) mean
# Experimental: Primary cultured cells from 18 selected MTC samples were incubated in ninety six well plates for forty eight hours with each SSTR agonist at 10^−8 M. Control cells were treated with vehicle solution. Cell viability was measured by a colorimetric method among eight replicates from treated and untreated (control) primary cultured cells. […] Data are expressed as the mean±SE percent cell viability reduction vs. untreated control cells. *P<0.05, and **P<0.01 vs. control.
# (§1) Tissue samples were surgically removed in accordance with the guidelines of the local comnmittees on human research. Thyroid tissue samples were obtained under sterile conditions and immediately minced in RPMI 1640 tissue culture medium. Tissues were incubated with 0.25% trypsin overnight at 4° C. and then dissociated using 0.35% collagenase (Sigma, Milano, ITALY) and 1% trypsin at 37° C. for sixty minutes. Cell suspensions were filtered through double layers of gaus(e and washed twice with serum-free F-12 Ham's Nutrient Modified Medium (F-12; Euroclone Ltd, Wetherby, UNITED KINGDOM). Tumor cells were re-suspended in F-12 with 10% fetal bovine serum and antibiotics, seeded in ninety-six well culture plates (˜2×10^4 cells/well) and incubated at 37° C. in a humidified atmosphere of 5% CO2 and 95% air according to known procedures (Zatelli, M. C. et al., Endocrinology, 2005, 146:2692-8). Approximately twenty-four hours later, the prepared cells were treated with the selected somatostatin agonist and were monitored for hormone secretion and overall viability. Informed consent of the patients was obtained for disclosing clinical investigation and performing the in vitro study.
# The effects of the tested somatostatin analogs on medullary thyroid carcinoma primary culture cell viability were assessed with a Cell Proliferation Kit I MTT® (Roche Diagnostics GmbH, Mannheim, GERMANY) which employs a colorimetric method for determining the number of viable cells in proliferation assays. Primary cultured cells were plated in ninety-six multiwell plates (2×10^4 cells/well) and incubated for forty-eight hours in a medium supplemented with 10% fetal bovine serum in the presence or absence of each somatostatin analog at 10^−8M. Treatments were renewed after the first twenty-four hours of incubation.
# In order to investigate the effects of somatostatin analogs on medullary thyroid carcinoma cell viability, an MTT assay was performed in primary cultures derived from the eighteen selected medullary thyroid carcinoma samples, treated with or without each somatostatin analog at […] for forty-eight hours. Percent cell viability reduction compared to a control in each primary culture under treatment with each somatostatin analog is reported in Table 6.
# [4] = test system: medullary thyroid carcinoma primary cultures; assay: Calcitonin secretion by MTC primary cultures (IRMA); format: cell-based, human; conditions: 10^−8 M, six hours
# Experimental: Primary cultured cells from 18 selected MTC samples were incubated in ninety six well plates for six hours with each SSTR agonist at 10^−8 M. Control cells were treated with vehicle solution. Calcitonin levels in the conditioned medium were measured by immunoradiometric assay (IRMA) among eight replicates in the conditioned medium from treated and untreated (control) primary cultured cells. […] Data are expressed as the mean±SE percent hormone secretion inhibition vs. untreated control cells. *P<0.05 and **P<0.01 vs. control.
# as §1
# Calcitonin levels were measured in a conditioned medium from treated and untreated primary cultured cells with the calcitonin-U.S.-IRMA® kit (Biosource Europe, Nivelles, BELGIUM) after a six hour treatment with […] of the selected somatostatin analogs. The intra- and inter-assay variation coefficients were 1.9-2.7% and 1.9-3.3%, respectively. The detection limit was 0.8 pg/ml. Hormone assays were performed in duplicate of conditioned medium from treated cells. Results were obtained by determining the mean value among eight replicates.
# In order to investigate the effects of somatostatin analogs on hormone secretion, calcitonin and CgA levels were measured in conditioned media collected from primary cultures derived from the selected eighteen medullary thyroid carcinoma treated with or without each somatostatin analog at 10^−8M for six hours.
# According to this criterion, […] as “responders” (group A: primary cultures #3, #5, #6, #7, #11, #12, #13, #14, #15, #16) and nine as “non responders” (group B: primary cultures #1, #2, #4, #8, #9, #10, #17, #18).
# [5] = molecular target: SSTR5 (Homo sapiens, UniProt P35346); assay: SSTR receptor binding affinity (Ki), SSTR5; conditions: read-out: SSTR Specificity Ki SSTR5
# Chain of SSTR5 (P35346 whole entry): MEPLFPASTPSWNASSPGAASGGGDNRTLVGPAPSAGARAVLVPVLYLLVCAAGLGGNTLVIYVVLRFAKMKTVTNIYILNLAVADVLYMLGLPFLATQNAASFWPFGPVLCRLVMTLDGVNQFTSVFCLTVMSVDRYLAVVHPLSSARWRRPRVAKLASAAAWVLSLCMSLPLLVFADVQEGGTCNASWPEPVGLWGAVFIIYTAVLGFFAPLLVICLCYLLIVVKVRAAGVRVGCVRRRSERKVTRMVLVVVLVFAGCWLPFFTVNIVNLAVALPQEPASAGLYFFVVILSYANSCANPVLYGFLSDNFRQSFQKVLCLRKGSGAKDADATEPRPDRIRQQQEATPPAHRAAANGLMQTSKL
# [6] = molecular target: SSTR1 (Homo sapiens, UniProt P30872); assay: SSTR receptor binding affinity (Ki), SSTR1; conditions: read-out: SSTR Specificity Ki SSTR1
# Chain of SSTR1 (P30872 whole entry): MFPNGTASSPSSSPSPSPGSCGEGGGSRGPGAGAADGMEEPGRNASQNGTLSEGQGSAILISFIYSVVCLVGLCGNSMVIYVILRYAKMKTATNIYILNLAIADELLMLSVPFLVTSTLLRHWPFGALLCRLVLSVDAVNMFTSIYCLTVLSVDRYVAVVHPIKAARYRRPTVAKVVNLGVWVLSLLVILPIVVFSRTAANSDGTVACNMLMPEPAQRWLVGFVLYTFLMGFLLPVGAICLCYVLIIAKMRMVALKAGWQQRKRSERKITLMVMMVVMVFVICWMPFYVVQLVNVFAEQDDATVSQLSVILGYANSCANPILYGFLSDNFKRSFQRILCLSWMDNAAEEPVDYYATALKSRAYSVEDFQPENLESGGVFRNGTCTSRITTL
# [7] = molecular target: SSTR4 (Homo sapiens, UniProt P31391); assay: SSTR receptor binding affinity (Ki), SSTR4; conditions: read-out: SSTR Specificity Ki SSTR4
# Chain of SSTR4 (P31391 whole entry): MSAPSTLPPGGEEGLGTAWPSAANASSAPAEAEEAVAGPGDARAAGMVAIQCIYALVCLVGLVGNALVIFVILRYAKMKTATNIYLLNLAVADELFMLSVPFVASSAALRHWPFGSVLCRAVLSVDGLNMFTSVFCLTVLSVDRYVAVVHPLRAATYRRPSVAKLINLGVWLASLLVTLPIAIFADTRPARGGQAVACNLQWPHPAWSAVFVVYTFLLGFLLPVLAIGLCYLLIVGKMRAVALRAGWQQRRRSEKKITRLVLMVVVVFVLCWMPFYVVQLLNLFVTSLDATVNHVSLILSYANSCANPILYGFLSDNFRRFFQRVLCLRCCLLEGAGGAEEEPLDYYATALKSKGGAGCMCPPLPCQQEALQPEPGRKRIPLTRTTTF
# [8] = MTC primary culture #1 (non responder)
# [9] = MTC primary culture #2 (non responder)
# [10] = MTC primary culture #3 (responder)
# [11] = MTC primary culture #4 (non responder)
# [12] = MTC primary culture #5 (responder)
# [13] = MTC primary culture #6 (responder)
# [14] = MTC primary culture #7 (responder)
# [15] = MTC primary culture #8 (non responder)
# [16] = MTC primary culture #9 (non responder)
# [17] = MTC primary culture #10 (non responder)
# [18] = MTC primary culture #11 (responder)
# [19] = MTC primary culture #12 (responder)
# [20] = MTC primary culture #13 (responder)
# [21] = MTC primary culture #14 (responder)
# [22] = MTC primary culture #15 (responder)
# [23] = MTC primary culture #16 (responder)
# [24] = MTC primary culture #17 (non responder)
# [25] = MTC primary culture #18 (non responder)
# [26] = group A (lanreotide responsive) mean
# [27] = group B (lanreotide non-responsive) mean
# Chain of SSTR2 (P30874 whole entry): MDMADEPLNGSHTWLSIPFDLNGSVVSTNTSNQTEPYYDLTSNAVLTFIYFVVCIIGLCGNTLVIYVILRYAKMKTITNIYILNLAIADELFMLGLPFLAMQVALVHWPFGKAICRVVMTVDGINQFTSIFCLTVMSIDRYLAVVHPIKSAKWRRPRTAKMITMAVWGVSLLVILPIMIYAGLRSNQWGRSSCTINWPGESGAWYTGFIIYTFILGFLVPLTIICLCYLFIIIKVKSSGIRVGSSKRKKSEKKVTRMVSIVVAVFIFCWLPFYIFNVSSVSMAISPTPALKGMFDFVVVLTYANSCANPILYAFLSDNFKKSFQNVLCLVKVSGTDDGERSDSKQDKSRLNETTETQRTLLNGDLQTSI
smiles,measurement,setting,value
"CC[C@@H]1NC(=O)[C@H](CCCCN)NC(=O)[C@@H](Cc2c[nH]c3ccccc23)NC(=O)[C@H](Cc2ccc(O)cc2)NC(=O)[C@@H]2Cc3ccccc3CN2C(=O)[C@H](Cc2ccccc2)NC1=O [Cmpd #2, c[Tic-Tyr-D-Trp-Lys-Abu-Phe]] (cyclo([Tic]Y[dW]K[Abu]F))",Ki,[1],0.34 nM
same,Ki,[2],412 nM
same,% cell viability reduction vs. control,[3]; [8],−5.0%
same,% cell viability reduction vs. control,[3]; [9],−56.4%
same,% cell viability reduction vs. control,[3]; [10],−3.2%
same,% cell viability reduction vs. control,[3]; [11],−17.9%
same,% cell viability reduction vs. control,[3]; [12],−8.6%
same,% cell viability reduction vs. control,[3]; [13],3.2%
same,% cell viability reduction vs. control,[3]; [14],54.4%
same,% cell viability reduction vs. control,[3]; [15],−15.3%
same,% cell viability reduction vs. control,[3]; [16],−8.8%
same,% cell viability reduction vs. control,[3]; [17],12.1%
same,% cell viability reduction vs. control,[3]; [18],−0.4%
same,% cell viability reduction vs. control,[3]; [19],15.8%
same,% cell viability reduction vs. control,[3]; [20],−5.3%
same,% cell viability reduction vs. control,[3]; [21],8.2%
same,% cell viability reduction vs. control,[3]; [22],5.6%
same,% cell viability reduction vs. control,[3]; [23],−3.0%
same,% cell viability reduction vs. control,[3]; [24],−10.3%
same,% cell viability reduction vs. control,[3]; [25],−20.6%
same,"cell viability, change vs. control (signed, negative = reduced)",[3],−13%
same,% CT secretion inhibition vs. control,[4]; [8],−6.1%
same,% CT secretion inhibition vs. control,[4]; [9],−4.3%
same,% CT secretion inhibition vs. control,[4]; [10],−36.0%
same,% CT secretion inhibition vs. control,[4]; [11],8.9%
same,% CT secretion inhibition vs. control,[4]; [12],−8.6%
same,% CT secretion inhibition vs. control,[4]; [13],−5.7%
same,% CT secretion inhibition vs. control,[4]; [14],−51.3%
same,% CT secretion inhibition vs. control,[4]; [15],−2.6%
same,% CT secretion inhibition vs. control,[4]; [16],6.7%
same,% CT secretion inhibition vs. control,[4]; [17],11.6%
same,% CT secretion inhibition vs. control,[4]; [18],10.3%
same,% CT secretion inhibition vs. control,[4]; [19],−12.4%
same,% CT secretion inhibition vs. control,[4]; [20],−48.6%
same,% CT secretion inhibition vs. control,[4]; [21],1.6%
same,% CT secretion inhibition vs. control,[4]; [22],−22.9%
same,% CT secretion inhibition vs. control,[4]; [23],−31.7%
same,% CT secretion inhibition vs. control,[4]; [24],−2.6%
same,% CT secretion inhibition vs. control,[4]; [25],−1.5%
same,"calcitonin secretion, change vs. control (signed, negative = reduced)",[4]; [26],−23%
same,"calcitonin secretion, change vs. control (signed, negative = reduced)",[4]; [27],not reduced
same,Ki,[5],214 nM
same,Ki,[6],1000 nM
same,Ki,[7],1000 nM
"C[C@@H](O)[C@H](NC(=O)[C@H](Cc1ccccc1)NC(=O)[C@@H](NC(=O)[C@H](CCCCN)NC(=O)[C@@H](Cc1c[nH]c2ccccc12)NC(=O)[C@H](Cc1c[nH]c2ccccc12)NC(=O)[C@H](Cc1ccccc1)NC(=O)[C@H](N)Cc1ccccc1)[C@@H](C)O)C(N)=O [Cmpd #3, D-Phe-Phe-Trp-D-Trp-Lys-Thr-Phe-Thr-NH2]",Ki,[1],166 nM
same,Ki,[2],1000 nM
same,% cell viability reduction vs. control,[3]; [8],30.8%
same,% cell viability reduction vs. control,[3]; [9],−72.5%
same,% cell viability reduction vs. control,[3]; [10],0.4%
same,% cell viability reduction vs. control,[3]; [11],4.8%
same,% cell viability reduction vs. control,[3]; [12],−5.3%
same,% cell viability reduction vs. control,[3]; [13],2.4%
same,% cell viability reduction vs. control,[3]; [14],4.2%
same,% cell viability reduction vs. control,[3]; [15],−0.3%
same,% cell viability reduction vs. control,[3]; [16],3.6%
same,% cell viability reduction vs. control,[3]; [17],2.3%
same,% cell viability reduction vs. control,[3]; [18],−1.0%
same,% cell viability reduction vs. control,[3]; [19],−11.3%
same,% cell viability reduction vs. control,[3]; [20],7.2%
same,% cell viability reduction vs. control,[3]; [21],6.0%
same,% cell viability reduction vs. control,[3]; [22],5.2%
same,% cell viability reduction vs. control,[3]; [23],−5.8%
same,% cell viability reduction vs. control,[3]; [24],−8.7%
same,% cell viability reduction vs. control,[3]; [25],−3.8%
same,"cell viability, change vs. control (signed, negative = reduced)",[3],neither affected
same,% CT secretion inhibition vs. control,[4]; [8],−16.6%
same,% CT secretion inhibition vs. control,[4]; [9],18.2%
same,% CT secretion inhibition vs. control,[4]; [10],−36.5%
same,% CT secretion inhibition vs. control,[4]; [11],5.3%
same,% CT secretion inhibition vs. control,[4]; [12],−17.5%
same,% CT secretion inhibition vs. control,[4]; [13],−25.8%
same,% CT secretion inhibition vs. control,[4]; [14],−34.6%
same,% CT secretion inhibition vs. control,[4]; [15],−7.5%
same,% CT secretion inhibition vs. control,[4]; [16],−1.6%
same,% CT secretion inhibition vs. control,[4]; [17],15.6%
same,% CT secretion inhibition vs. control,[4]; [18],−76.2%
same,% CT secretion inhibition vs. control,[4]; [19],−9.3%
same,% CT secretion inhibition vs. control,[4]; [20],−43.2%
same,% CT secretion inhibition vs. control,[4]; [21],9.5%
same,% CT secretion inhibition vs. control,[4]; [22],7.8%
same,% CT secretion inhibition vs. control,[4]; [23],−17.4%
same,% CT secretion inhibition vs. control,[4]; [24],7.4%
same,% CT secretion inhibition vs. control,[4]; [25],13.6%
same,calcitonin secretion reduced / inhibited by,[4]; group A (lanreotide responders) mean,28%
same,"calcitonin secretion, change vs. control (signed, negative = reduced)",[4]; [26],−28%
same,"calcitonin secretion, change vs. control (signed, negative = reduced)",[4]; [27],not reduced
same,Ki,[5],2.4 nM
same,Ki,[6],1150 nM
CCCN1C[C@H](CSCC(=O)NCCCC[C@@H](NC(=O)CSC[C@@H]2C[C@@H]3c4cccc5[nH]cc(c45)C[C@H]3N(CCC)C2)C(=O)N[C@H]2CSSC[C@@H](C(=O)N[C@H](C(N)=O)[C@@H](C)O)NC(=O)[C@H](CC)NC(=O)[C@H](CCCCN)NC(=O)[C@@H](Cc3c[nH]c4ccccc34)NC(=O)[C@H](Cc3ccc(O)cc3)NC2=O)C[C@@H]2c3cccc4[nH]cc(c34)C[C@H]21 [Dop2-D-Lys(Dop2)-c[Cys-Tyr-D-Trp-Lys-Abu-Cys]-Thr-NH2],Ki,[5],41.5 nM
